Reference: patent US20210038607A1, “OXADIAZOLYLTHIOPHENE DERIVATIVES USEFUL AS HISTONE DEACETYLASE INHIBITORS” (Karus Therapeutics Limited, priority 2018, published 2021)

What was measured:
Human HDAC8 = molecular target: T1, Human HDAC8 (Homo sapiens, UniProt Q9BY41); test: HDAC8 biochemical assay, AMC-labeled peptide substrate; conditions: read-out: HDAC Isoform IC50 (nM) 8
T1 construct: full length with C-terminal His tag, MW=42.6 kDa; His (C); host or cells: baculovirus expression system
T1 sequence (Q9BY41 1-377): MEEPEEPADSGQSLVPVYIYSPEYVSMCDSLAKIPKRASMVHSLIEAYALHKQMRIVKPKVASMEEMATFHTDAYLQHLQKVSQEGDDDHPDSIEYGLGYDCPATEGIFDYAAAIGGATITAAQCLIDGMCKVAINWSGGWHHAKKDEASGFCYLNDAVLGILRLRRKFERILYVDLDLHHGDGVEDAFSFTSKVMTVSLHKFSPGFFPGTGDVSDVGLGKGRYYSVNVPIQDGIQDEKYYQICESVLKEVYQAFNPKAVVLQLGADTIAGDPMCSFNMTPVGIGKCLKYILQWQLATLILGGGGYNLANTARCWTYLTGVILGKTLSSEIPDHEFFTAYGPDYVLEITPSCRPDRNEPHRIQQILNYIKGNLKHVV
Procedure, shortened: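 Full-length human HDAC8 with C-terminal His tag, baculovirus-expressed, 1 ng/ul, with 100 µM RHK(Ac)K(Ac)AMC substrate in Tris-HCl pH8.0 buffer with BSA, 1% DMSO. Incubated 2 h at 30° C, then developer added to cleave deacetylated substrate; fluorescence read at 360/460 Ex/Em.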

Human HDAC10 = molecular target: T2, Human HDAC10 (Homo sapiens, UniProt Q969S8); test: HDAC10 biochemical assay, AMC-labeled peptide substrate; conditions: read-out: HDAC Isoform IC50 (nM) 10
T2 construct: Human HDAC10 (a.a. 1-481); GST (N); His (C); host or cells: baculovirus expression system
T2 sequence (Q969S8 1-481): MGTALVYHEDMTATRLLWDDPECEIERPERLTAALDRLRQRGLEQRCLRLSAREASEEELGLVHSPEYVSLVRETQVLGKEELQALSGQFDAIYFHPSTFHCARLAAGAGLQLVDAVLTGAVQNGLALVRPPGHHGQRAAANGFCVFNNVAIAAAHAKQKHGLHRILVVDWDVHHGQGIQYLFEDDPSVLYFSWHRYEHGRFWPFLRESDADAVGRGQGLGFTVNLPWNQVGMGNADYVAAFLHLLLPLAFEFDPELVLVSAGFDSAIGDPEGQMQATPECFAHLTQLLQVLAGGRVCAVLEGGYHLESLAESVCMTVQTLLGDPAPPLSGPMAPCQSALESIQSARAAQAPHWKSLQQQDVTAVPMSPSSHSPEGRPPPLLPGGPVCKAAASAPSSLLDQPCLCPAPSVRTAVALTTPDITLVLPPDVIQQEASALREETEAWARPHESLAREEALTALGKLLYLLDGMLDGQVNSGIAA
Procedure, shortened: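 Baculovirus-expressed GST/His-tagged human HDAC10 (aa 1-481), 12 ng/ul, incubated with 50 μM RHKK(Ac)AMC in Tris pH 8.0 buffer with BSA and 1% DMSO, 2 h at 30 °C. Developer then releases AMC, read at 360/460 nm.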

Human HDAC9 = molecular target: T3, Human HDAC9 (Homo sapiens, UniProt Q9UKV0); test: HDAC9 biochemical assay, class IIa-specific substrate; conditions: read-out: HDAC Isoform IC50 (nM) 9
T3 construct: amino acids 604-1066 with C-terminal His tag; His (C); host or cells: baculovirus expression system
T3 sequence (Q9UKV0 604-1066 isoform Q9UKV0-5): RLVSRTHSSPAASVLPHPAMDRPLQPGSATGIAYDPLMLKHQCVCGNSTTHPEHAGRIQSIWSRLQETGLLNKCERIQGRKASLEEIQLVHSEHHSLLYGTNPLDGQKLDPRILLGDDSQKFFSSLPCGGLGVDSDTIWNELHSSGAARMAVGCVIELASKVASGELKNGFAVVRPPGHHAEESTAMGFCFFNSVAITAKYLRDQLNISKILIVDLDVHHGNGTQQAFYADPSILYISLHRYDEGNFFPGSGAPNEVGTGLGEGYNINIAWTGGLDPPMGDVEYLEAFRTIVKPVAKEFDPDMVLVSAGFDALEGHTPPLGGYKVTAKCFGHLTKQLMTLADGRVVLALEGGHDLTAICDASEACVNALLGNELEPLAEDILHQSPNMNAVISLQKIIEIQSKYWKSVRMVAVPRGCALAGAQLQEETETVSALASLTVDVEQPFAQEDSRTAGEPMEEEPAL
Procedure, shortened: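 HDAC9 residues 604-1066 (C-terminal His tag, baculovirus-expressed) at 0.06 ng/ul with 50 μM class IIa substrate Boc-Lys(trifluoroacetyl)-AMC in Tris-HCl pH 8.0 buffer with BSA and 1% DMSO. 30 min at room temperature, then developer added; fluorescence read at 360/460 nm Ex/Em.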

SMILES | IC50 (Human HDAC8) [nM] | IC50 (Human HDAC10) [nM] | IC50 (Human HDAC9) [nM]
Cc1nccnc1N(Cc1ccc(-c2noc(C(F)(F)F)n2)s1)c1cnccn1 [Example BE, 3-Methyl-N-(pyrazin-2-yl)-N-({5-[5-(trifluoromethyl)-1,2,4-oxadiazol-3-yl]thiophen-2-yl}methyl)pyrazin-2-amine] | ≤ 10000 | > 10000 | ≤ 1000
Cc1cncc(N(Cc2ccc(-c3noc(C(F)(F)F)n3)s2)c2cnccn2)n1 [Example BP, 6-Methyl-N-(pyrazin-2-yl)-N-({5-[5-(trifluoromethyl)-1,2,4-oxadiazol-3-yl]thiophen-2-yl}methyl)pyrazin-2-amine] | ≤ 10000 | > 10000 | ≤ 10000
NC(=O)c1ccc(N(Cc2ccc(-c3noc(C(F)(F)F)n3)s2)c2cnccn2)nn1 [Example DQ, 6-[(Pyrazin-2-yl)({5-[5-(trifluoromethyl)-1,2,4-oxadiazol-3-yl]thiophen-2-yl}methyl)amino]pyridazine-3-carboxamide] | ≤ 10000 | > 10000 | ≤ 1000
FC(F)(F)c1nc(-c2ccc(CN(c3cnccn3)c3ncccn3)s2)no1 [Example AS, N-(Pyrimidin-2-yl)-N-({5-[5-(trifluoromethyl)-1,2,4-oxadiazol-3-yl]thiophen-2-yl}methyl)pyrazin-2-amine] | ≤ 10000 | > 10000 | ≤ 10000
COC1CN(C(=O)c2cnnc(N(Cc3ccc(-c4noc(C(F)(F)F)n4)s3)c3cnccn3)c2)C1 [Example DZ, 5-(3-Methoxyazetidine-1-carbonyl)-N-(pyrazin-2-yl)-N-({5-[5-(trifluoromethyl)-1,2,4-oxadiazol-3-yl]thiophen-2-yl}methyl)pyridazin-3-amine] | ≤ 10000 | > 10000 | ≤ 10000
O=C(c1ccc(N(Cc2ccc(-c3noc(C(F)(F)F)n3)s2)c2cnccn2)nn1)N1CCOCC1 [Example DS, 6-(Morpholine-4-carbonyl)-N-(pyrazin-2-yl)-N-({5-[5-(trifluoromethyl)-1,2,4-oxadiazol-3-yl]thiophen-2-yl}methyl)pyridazin-3-amine] | ≤ 10000 | > 10000 | ≤ 1000
FC(F)(F)c1cnc(N(Cc2ccc(-c3noc(C(F)(F)F)n3)s2)c2cnccn2)cn1 [Example BK, N-(Pyrazin-2-yl)-5-(trifluoromethyl)-N-({5-[5-(trifluoromethyl)-1,2,4-oxadiazol-3-yl]thiophen-2-yl}methyl)pyrazin-2-amine] | ≤ 10000 | > 10000 | ≤ 10000
FC(F)(F)c1nc(-c2ccc(CN(c3cnccn3)c3cnccn3)s2)no1 [Example BA, N-(Pyrazin-2-yl)-N-({5-[5-(trifluoromethyl)-1,2,4-oxadiazol-3-yl]thiophen-2-yl}methyl)pyrazin-2-amine] | ≤ 10000 | > 10000 | ≤ 10000

Further lines, results first:

IC50 (Human HDAC8) [nM] | IC50 (Human HDAC10) [nM] | IC50 (Human HDAC9) [nM] | SMILES
≤ 10000 | > 10000 | ≤ 10000 | C[C@H]1CCCN1C(=O)c1cnnc(N(Cc2ccc(-c3noc(C(F)(F)F)n3)s2)c2cnccn2)c1 [Example GY, 5-[(2S)-2-Methylpyrrolidine-1-carbonyl]-N-(pyrazin-2-yl)-N-({5-[5-(trifluoromethyl)-1,2,4-oxadiazol-3-yl]thiophen-2-yl}methyl)pyridazin-3-amine]
≤ 10000 | > 10000 | ≤ 10000 | CC(C)(O)c1cnnc(N(Cc2ccc(-c3noc(C(F)(F)F)n3)s2)c2cnccn2)c1 [Example GS, 2-{6-[(Pyrazin-2-yl)({5-[5-(trifluoromethyl)-1,2,4-oxadiazol-3-yl]thiophen-2-yl}methyl)amino]pyridazin-4-yl}propan-2-ol]
≤ 10000 | > 10000 | ≤ 10000 | O=C(c1ccc(N(Cc2ccc(-c3noc(C(F)(F)F)n3)s2)c2cnccn2)nn1)N1CC[S+]([O-])CC1 [Example FD, 4-{6-[(Pyrazin-2-yl)({5-[5-(trifluoromethyl)-1,2,4-oxadiazol-3-yl]thiophen-2-yl}methyl)amino]pyridazine-3-carbonyl}-1lambda4-thiomorpholin-1-one]
≤ 10000 | > 10000 | ≤ 10000 | CN(C)C1CN(C(=O)c2cnnc(N(Cc3ccc(-c4noc(C(F)(F)F)n4)s3)c3cnccn3)c2)C1 [Example FX, 5-[3-(Dimethylamino)azetidine-1-carbonyl]-N-(pyrazin-2-yl)-N-({5-[5-(trifluoromethyl)-1,2,4-oxadiazol-3-yl]thiophen-2-yl}methyl)pyridazin-3-amine]
≤ 10000 | > 10000 | ≤ 10000 | O=C(c1cnnc(N(Cc2ccc(-c3noc(C(F)(F)F)n3)s2)c2cnccn2)c1)N1C[C@H]2C[C@@H]1CO2 [Example FW, 5-[(1R,4R)-2-Oxa-5-azabicyclo[2.2.1]heptane-5-carbonyl]-N-(pyrazin-2-yl)-N-({5-[5-(trifluoromethyl)-1,2,4-oxadiazol-3-yl]thiophen-2-yl}methyl)pyridazin-3-amine]
≤ 10000 | > 10000 | ≤ 10000 | NC(=O)c1nccnc1N(Cc1ccc(-c2noc(C(F)(F)F)n2)s1)c1cnccn1 [Example GO, 3-[(Pyrazin-2-yl)({5-[5-(trifluoromethyl)-1,2,4-oxadiazol-3-yl]thiophen-2-yl}methyl)amino]pyrazine-2-carboxamide]
≤ 10000 | > 10000 | ≤ 1000 | O=C(c1ccc(N(Cc2ccc(-c3noc(C(F)(F)F)n3)s2)c2cnccn2)nn1)N1CCC12COC2 [Example FH, 6-{6-Oxa-1-azaspiro[3.3]heptane-1-carbonyl}-N-(pyrazin-2-yl)-N-({5-[5-(trifluoromethyl)-1,2,4-oxadiazol-3-yl]thiophen-2-yl}methyl)pyridazin-3-amine]
≤ 10000 | > 10000 | ≤ 1000 | Nc1cnnc(N(Cc2ccc(-c3noc(C(F)(F)F)n3)s2)c2cnccn2)c1 [Example FL, N3-(Pyrazin-2-yl)-N3-({5-[5-(trifluoromethyl)-1,2,4-oxadiazol-3-yl]thiophen-2-yl}methyl)pyridazine-3,5-diamine]
≤ 10000 | > 10000 | ≤ 10000 | N#Cc1cnnc(N(Cc2ccc(-c3noc(C(F)(F)F)n3)s2)c2cnccn2)c1 [Example EE, 6-[(Pyrazin-2-yl)({5-[5-(trifluoromethyl)-1,2,4-oxadiazol-3-yl]thiophen-2-yl}methyl)amino]pyridazine-4-carbonitrile]
≤ 10000 | > 10000 | ≤ 10000 | O=C(c1nccnc1N(Cc1ccc(-c2noc(C(F)(F)F)n2)s1)c1cnccn1)N1CCC1 [Example GP, 3-(Azetidine-1-carbonyl)-N-(pyrazin-2-yl)-N-({5-[5-(trifluoromethyl)-1,2,4-oxadiazol-3-yl]thiophen-2-yl}methyl)pyrazin-2-amine]
≤ 10000 | > 10000 | ≤ 10000 | O=C(c1cnnc(N(Cc2ccc(-c3noc(C(F)(F)F)n3)s2)c2cnccn2)c1)N1CCOCC1 [Example EB, 5-(Morpholine-4-carbonyl)-N-(pyrazin-2-yl)-N-({5-[5-(trifluoromethyl)-1,2,4-oxadiazol-3-yl]thiophen-2-yl}methyl)pyridazin-3-amine]
≤ 10000 | > 10000 | ≤ 10000 | O=C(c1cnnc(N(Cc2ccc(-c3noc(C(F)(F)F)n3)s2)c2cnccn2)c1)N1CCC(F)(F)CC1 [Example FY, 5-(4,4-Difluoropiperidine-1-carbonyl)-N-(pyrazin-2-yl)-N-({5-[5-(trifluoromethyl)-1,2,4-oxadiazol-3-yl]thiophen-2-yl}methyl)pyridazin-3-amine]
